ChEMBL document CHEMBL1143429, “One-pot synthesis and antibacterial activities of pyrazolo[4',3':5,6]pyrido[2,3-d]pyrimidine-dione derivatives” (2008)
In brackets after ≈: the same amount, converted by molar mass. Activity calls are given as the source filed them. The calls are words filed in the database; no cut-off is given here.

Key:
Format in all cases: functional
[1] = test system: Bacillus subtilis; assay: Antibacterial activity against Bacillus subtilis ATCC 465 by microdilution method
[2] = test system: Bacillus pumilus; assay: Antibacterial activity against Bacillus pumilus PTCC 1114 by microdilution method
[3] = test system: Micrococcus luteus; assay: Antibacterial activity against Micrococcus luteus PTCC 1110 by microdilution method
[4] = test system: Staphylococcus aureus; assay: Antibacterial activity against Staphylococcus aureus ATCC 25923 by microdilution method
[5] = test system: Staphylococcus epidermidis; assay: Antibacterial activity against Staphylococcus epidermidis ATCC 12228 by microdilution method
[6] = test system: Streptococcus mutans; assay: Antibacterial activity against Streptococcus mutans PTCC 1601 by microdilution method
[7] = test system: Escherichia coli; assay: Antibacterial activity against Escherichia coli ATCC 25922 by microdilution method
[8] = test system: Enterococcus faecalis; assay: Antibacterial activity against Enterococcus faecalis ATCC 29737 by microdilution method
[9] = test system: Pseudomonas aeruginosa; assay: Antibacterial activity against Pseudomonas aeruginosa ATCC 85327 by microdilution method

| Compound | MIC [1] [µg/mL] | MIC [2] [µg/mL] | MIC [3] [µg/mL] | MIC [4] [µg/mL] | MIC [5] [µg/mL] | MIC [6] [µg/mL] | MIC [7] [µg/mL] | MIC [8] [µg/mL] | MIC [9] [µg/mL] | Activity [1] | Activity [2] | Activity [3] | Activity [4] | Activity [5] | Activity [6] | Activity [8] | Activity [7] | Activity [9] |
| --- | --- | --- | --- | --- | --- | --- | --- | --- | --- | --- | --- | --- | --- | --- | --- | --- | --- | --- |
| O=c1[nH]c2c(c(=O)[nH]1)C(c1ccc(Cl)cc1)c1c(-c3ccccc3)nn(-c3ccc([N+](=O)[O-])cc3)c1N2 (configuration not stated) | 8 (≈ 15.6 µM) | 6 (≈ 11.7 µM) | 4 (≈ 7.8 µM) | 4 (≈ 7.8 µM) | 28 (≈ 54.6 µM) | < 2 | 6 (≈ 11.7 µM) | 2 (≈ 3.9 µM) | 28 (≈ 54.6 µM) | – | – | – | – | – | – | – | – | – |
| Cc1ccc(C2c3c(-c4ccccc4)nn(-c4ccccc4)c3Nc3[nH]c(=O)[nH]c(=O)c32)cc1 (configuration not stated) | 2 (≈ 4.47 µM) | 2 (≈ 4.47 µM) | < 2 | 2 (≈ 4.47 µM) | 2 (≈ 4.47 µM) | < 2 | < 2 | 2 (≈ 4.47 µM) | 2 (≈ 4.47 µM) | – | – | – | – | – | – | – | – | – |
| O=c1[nH]c(=S)[nH]c2c1C(c1ccc([N+](=O)[O-])cc1)c1c(-c3ccccc3)nn(-c3ccccc3)c1N2 (configuration not stated) | 4 (≈ 8.09 µM) | 4 (≈ 8.09 µM) | 3 (≈ 6.07 µM) | 4 (≈ 8.09 µM) | 8 (≈ 16.2 µM) | 6 (≈ 12.1 µM) | 6 (≈ 12.1 µM) | 14 (≈ 28.3 µM) | 12 (≈ 24.3 µM) | – | – | – | – | – | – | – | – | – |
| O=c1[nH]c2c(c(=O)[nH]1)C(c1ccc(Br)cc1)c1c(-c3ccccc3)nn(-c3ccc([N+](=O)[O-])cc3)c1N2 (configuration not stated) | 8 (≈ 14.4 µM) | 4 (≈ 7.18 µM) | 2 (≈ 3.59 µM) | 4 (≈ 7.18 µM) | 32 (≈ 57.4 µM) | < 2 | 4 (≈ 7.18 µM) | 4 (≈ 7.18 µM) | 32 (≈ 57.4 µM) | – | – | – | – | – | – | – | – | – |
| Cc1ccc(C2c3c(-c4ccccc4)nn(-c4ccc([N+](=O)[O-])cc4)c3Nc3[nH]c(=O)[nH]c(=O)c32)cc1 (configuration not stated) | 6 (≈ 12.2 µM) | 6 (≈ 12.2 µM) | 2 (≈ 4.06 µM) | 2 (≈ 4.06 µM) | 24 (≈ 48.7 µM) | < 2 | 4 (≈ 8.12 µM) | 2 (≈ 4.06 µM) | 28 (≈ 56.9 µM) | – | – | – | – | – | – | – | – | – |
| O=c1[nH]c(=S)[nH]c2c1C(c1ccc(Cl)cc1)c1c(-c3ccccc3)nn(-c3ccc([N+](=O)[O-])cc3)c1N2 (configuration not stated) | 4 (≈ 7.56 µM) | 4 (≈ 7.56 µM) | 3 (≈ 5.67 µM) | 6 (≈ 11.3 µM) | 6 (≈ 11.3 µM) | 8 (≈ 15.1 µM) | 6 (≈ 11.3 µM) | 12 (≈ 22.7 µM) | 16 (≈ 30.2 µM) | – | – | – | – | – | – | – | – | – |
| O=c1[nH]c(=S)[nH]c2c1C(c1ccccc1)c1c(-c3ccccc3)nn(-c3ccccc3)c1N2 (configuration not stated) | 4 (≈ 8.9 µM) | 4 (≈ 8.9 µM) | 8 (≈ 17.8 µM) | 8 (≈ 17.8 µM) | 4 (≈ 8.9 µM) | < 2 | 4 (≈ 8.9 µM) | 4 (≈ 8.9 µM) | 32 (≈ 71.2 µM) | – | – | – | – | – | – | – | – | – |
| GENTAMICIN | – | – | – | – | – | – | 4 | – | 8 | inactive | inactive | inactive | inactive | inactive | inactive | inactive | – | – |
| O=c1[nH]c(=S)[nH]c2c1C(c1ccc([N+](=O)[O-])cc1)c1c(-c3ccccc3)nn(-c3ccc([N+](=O)[O-])cc3)c1N2 (configuration not stated) | 4 (≈ 7.41 µM) | 4 (≈ 7.41 µM) | 4 (≈ 7.41 µM) | 6 (≈ 11.1 µM) | 8 (≈ 14.8 µM) | 8 (≈ 14.8 µM) | 6 (≈ 11.1 µM) | 10 (≈ 18.5 µM) | 14 (≈ 25.9 µM) | – | – | – | – | – | – | – | – | – |
| O=c1[nH]c(=S)[nH]c2c1C(c1ccc(Cl)cc1)c1c(-c3ccccc3)nn(-c3ccccc3)c1N2 (configuration not stated) | 4 (≈ 8.26 µM) | 4 (≈ 8.26 µM) | 4 (≈ 8.26 µM) | 4 (≈ 8.26 µM) | 8 (≈ 16.5 µM) | 8 (≈ 16.5 µM) | 4 (≈ 8.26 µM) | 16 (≈ 33.1 µM) | 16 (≈ 33.1 µM) | – | – | – | – | – | – | – | – | – |
| O=c1[nH]c2c(c(=O)[nH]1)C(c1ccc(Br)cc1)c1c(-c3ccccc3)nn(-c3ccccc3)c1N2 (configuration not stated) | 2 (≈ 3.9 µM) | 2 (≈ 3.9 µM) | 2 (≈ 3.9 µM) | 58 (≈ 113 µM) | 2 (≈ 3.9 µM) | < 2 | < 2 | 30 (≈ 58.6 µM) | 2 (≈ 3.9 µM) | – | – | – | – | – | – | – | – | – |
| O=c1[nH]c2c(c(=O)[nH]1)C(c1cccc([N+](=O)[O-])c1)c1c(-c3ccccc3)nn(-c3ccc([N+](=O)[O-])cc3)c1N2 (configuration not stated) | 6 (≈ 11.5 µM) | 4 (≈ 7.64 µM) | 2 (≈ 3.82 µM) | 2 (≈ 3.82 µM) | 26 (≈ 49.7 µM) | < 2 | 6 (≈ 11.5 µM) | 2 (≈ 3.82 µM) | 30 (≈ 57.3 µM) | – | – | – | – | – | – | – | – | – |
| CN(C)[C@@H]1C(O)=C(C(N)=O)C(=O)[C@@]2(O)C(O)=C3C(=O)c4c(O)cccc4[C@@](C)(O)[C@H]3C[C@@H]12 [TETRACYCLINE] | 4 (≈ 9 µM) | 8 (≈ 18 µM) | 4 (≈ 9 µM) | 4 (≈ 9 µM) | < 2 | 2 (≈ 4.5 µM) | – | 8 (≈ 18 µM) | – | – | – | – | – | – | – | – | inactive | inactive |
| O=c1[nH]c2c(c(=O)[nH]1)C(c1ccc(Cl)cc1)c1c(-c3ccccc3)nn(-c3ccccc3)c1N2 (configuration not stated) | 4 (≈ 8.55 µM) | 2 (≈ 4.27 µM) | < 2 | 64 (≈ 137 µM) | 4 (≈ 8.55 µM) | < 2 | < 2 | 32 (≈ 68.4 µM) | 2 (≈ 4.27 µM) | – | – | – | – | – | – | – | – | – |
| O=c1[nH]c2c(c(=O)[nH]1)C(c1ccccc1)c1c(-c3ccccc3)nn(-c3ccccc3)c1N2 (configuration not stated) | 2 (≈ 4.61 µM) | < 2 | < 2 | 2 (≈ 4.61 µM) | 2 (≈ 4.61 µM) | < 2 | < 2 | 2 (≈ 4.61 µM) | 2 (≈ 4.61 µM) | – | – | – | – | – | – | – | – | – |
| O=c1[nH]c2c(c(=O)[nH]1)C(c1cccc([N+](=O)[O-])c1)c1c(-c3ccccc3)nn(-c3ccccc3)c1N2 (configuration not stated) | 2 (≈ 4.18 µM) | 2 (≈ 4.18 µM) | 2 (≈ 4.18 µM) | 2 (≈ 4.18 µM) | 2 (≈ 4.18 µM) | < 2 | < 2 | 2 (≈ 4.18 µM) | 2 (≈ 4.18 µM) | – | – | – | – | – | – | – | – | – |
| O=c1[nH]c2c(c(=O)[nH]1)C(c1ccccc1)c1c(-c3ccccc3)nn(-c3ccc([N+](=O)[O-])cc3)c1N2 (configuration not stated) | 6 (≈ 12.5 µM) | 4 (≈ 8.36 µM) | 2 (≈ 4.18 µM) | 4 (≈ 8.36 µM) | 18 (≈ 37.6 µM) | < 2 | 4 (≈ 8.36 µM) | 4 (≈ 8.36 µM) | 20 (≈ 41.8 µM) | – | – | – | – | – | – | – | – | – |
| O=c1[nH]c(=S)[nH]c2c1C(c1ccccc1)c1c(-c3ccccc3)nn(-c3ccc([N+](=O)[O-])cc3)c1N2 (configuration not stated) | 3 (≈ 6.07 µM) | 4 (≈ 8.09 µM) | 4 (≈ 8.09 µM) | 3 (≈ 6.07 µM) | 7 (≈ 14.2 µM) | 8 (≈ 16.2 µM) | 5 (≈ 10.1 µM) | 13 (≈ 26.3 µM) | 14 (≈ 28.3 µM) | – | – | – | – | – | – | – | – | – |
